Test results taken from patent publication US20240150365A1 (Hotspot Therapeutics, Inc., priority 2022, published 2024).
Where two headings read alike, the source gives them in different places.

What was measured:
MALT1 = target: T1, MALT1 (Homo sapiens, UniProt Q9UDY8); assay: MALT-1 Fluorogenic Peptide Cleavage Assay (MALT1 inhibition assay); format: biochemical; settings: Avi-tagged FL MALT-1, Ac-LRSR-AMC peptide substrate, 30 min pre-incubation, 90 min reaction
T1 construct: Avi-tagged FL MALT-1 (Pharmaron, stored at −70° C.); Avi tag
T1 sequence (Q9UDY8 1-824): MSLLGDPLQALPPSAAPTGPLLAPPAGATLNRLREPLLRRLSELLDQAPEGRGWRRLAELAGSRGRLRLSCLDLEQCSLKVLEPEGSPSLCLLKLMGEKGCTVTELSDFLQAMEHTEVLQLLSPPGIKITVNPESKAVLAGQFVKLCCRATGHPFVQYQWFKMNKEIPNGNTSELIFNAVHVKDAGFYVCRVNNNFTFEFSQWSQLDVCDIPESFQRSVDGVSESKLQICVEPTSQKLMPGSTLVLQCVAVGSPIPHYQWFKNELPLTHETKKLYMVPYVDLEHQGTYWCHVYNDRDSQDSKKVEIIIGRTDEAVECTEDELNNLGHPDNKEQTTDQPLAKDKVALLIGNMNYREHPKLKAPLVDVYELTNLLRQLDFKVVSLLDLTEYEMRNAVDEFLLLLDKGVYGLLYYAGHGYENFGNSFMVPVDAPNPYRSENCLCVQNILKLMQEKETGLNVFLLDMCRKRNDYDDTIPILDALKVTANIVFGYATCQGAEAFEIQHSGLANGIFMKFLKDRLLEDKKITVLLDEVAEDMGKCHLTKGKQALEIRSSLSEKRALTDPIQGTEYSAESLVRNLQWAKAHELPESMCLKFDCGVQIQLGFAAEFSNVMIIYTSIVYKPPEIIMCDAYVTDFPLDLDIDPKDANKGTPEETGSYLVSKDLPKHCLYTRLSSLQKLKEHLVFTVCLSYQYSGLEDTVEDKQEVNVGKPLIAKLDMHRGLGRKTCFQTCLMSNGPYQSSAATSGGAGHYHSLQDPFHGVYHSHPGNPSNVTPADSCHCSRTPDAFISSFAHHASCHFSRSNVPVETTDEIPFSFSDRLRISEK
Method in brief: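 Avi-tagged full-length MALT1 pre-incubated 30 min with compound (2% DMSO final), then cleavage of Ac-LRSR-AMC followed over 90 min at room temperature. AMC fluorescence read at 342/441 nm; % inhibition fitted to sigmoidal curves for IC50.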

NF-kB = NF-kB reporter assay in Jurkat cells stimulated with aCD3/aCD28/PMA; format: cell-based; settings: Homo sapiens, Jurkat, read-out: NF-kB Reporter Assay IC50
Method in brief: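 Jurkat cells (25,000/well, serum-free RPMI 1640) preincubated 1 hr at 37° C with serially diluted compound, then stimulated with aCD3/aCD28/PMA (final 5 μg/mL, 5 μg/mL, 0.03 μg/mL) for 4 hr. Reporter luminescence read with One-Glo; IC50 derived.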

[1] = Jurkat cells, 1 hr compound incubation, aCD3/aCD28/PMA stimulation 4 hr, One-Glo readout

Row | IC50 (MALT1) [µM] | IC50 (NF-kB; [1]) [µM] | SMILES | IC50 (NF-kB) [µM]
1 | < 0.4 | 0.4 to 1 | COc1ncc2cnn(C)c2c1NS(=O)(=O)c1ccc(N2C[C@@](O)(C(F)(F)F)CC2=O)nc1 [Example I-235, (R)-6-(4-hydroxy-2-oxo-4-(trifluoromethyl)pyrrolidin-1-yl)-N-(6-methoxy-1-methyl-1H-pyrazolo[4,3-c]pyridin-7-yl)pyridine-3-sulfonamide] | 
2 | 0.4 to 1 | > 2.5 | COc1ncc2cnn(C)c2c1NS(=O)(=O)c1ccc(N2C[C@](O)(C(F)(F)F)CC2=O)nc1 [Example I-236, (S)-6-(4-hydroxy-2-oxo-4-(trifluoromethyl)pyrrolidin-1-yl)-N-(6-methoxy-1-methyl-1H-pyrazolo[4,3-c]pyridin-7-yl)pyridine-3-sulfonamide] | 
3 | < 0.4 | < 0.4 | COc1ccc2cnn(C)c2c1NS(=O)(=O)c1ccc(-n2cc(C)[nH]c2=O)nc1 [Example I-237, N-(6-methoxy-1-methyl-1H-indazol-7-yl)-6-(4-methyl-2-oxo-2,3-dihydro-1H-imidazol-1-yl)pyridine-3-sulfonamide] | 
4 | < 0.4 | < 0.4 | CCOC(=O)c1cnn(-c2ccc(S(=O)(=O)Nc3c(OC)ccc4cnn(C)c34)cn2)c1C [Example I-238, ethyl 1-{5-[(6-methoxy-1-methylindazol-7-yl)sulfamoyl]pyridin-2-yl}-5-methylpyrazole-4-carboxylate] | 
5 | 1 to 2.5 | > 2.5 | COc1ccc2cnn(C)c2c1NS(=O)(=O)c1ccc(-c2nc(C)nn2C)nc1 [Example I-239, 6-(1,3-dimethyl-1H-1,2,4-triazol-5-yl)-N-(6-methoxy-1-methyl-1H-indazol-7-yl)pyridine-3-sulfonamide] | 
6 | < 0.4 | < 0.4 | COc1ccc2c(F)nn(C)c2c1NS(=O)(=O)c1ccc(-n2cc(Cl)cn2)nc1 [Example I-240, 6-(4-chloro-1H-pyrazol-1-yl)-N-(3-fluoro-6-methoxy-1-methyl-1H-indazol-7-yl)pyridine-3-sulfonamide] | 
7 | 0.4 to 1 | < 0.4 | COc1ccc2cnn(C)c2c1NS(=O)(=O)c1ccc(-n2ncc(CO)c2C)nc1 [Example I-242, 6-[4-(hydroxymethyl)-5-methylpyrazol-1-yl]-N-(6-methoxy-1-methylindazol-7-yl)pyridine-3-sulfonamide] | 
8 | > 2.5 | < 0.4 | Cn1ncc2cccc(NS(=O)(=O)c3ccc(-n4ncc5c4CCOC5)nc3)c21 [Example I-245, N-(1-methylindazol-7-yl)-6-{4H,6H,7H-pyrano[4,3-c]pyrazol-1-yl}pyridine-3-sulfonamide] | 
9 | > 2.5 | < 0.4 | CCOC(=O)c1cnn(-c2ccc(S(=O)(=O)Nc3cccc4cnn(C)c34)cn2)c1C [Example I-246, ethyl 5-methyl-1-(5-(N-(1-methyl-1H-indazol-7-yl)sulfamoyl)pyridin-2-yl)-1H-pyrazole-4-carboxylate] | 

Row | SMILES | IC50 (MALT1) [µM] | IC50 (NF-kB; [1]) [µM] | IC50 (NF-kB) [µM]
10 | Cn1c(-c2ccc(S(=O)(=O)Nc3cccc4cnn(C)c34)cn2)cnc1C(F)(F)F [Example I-234, 6-[3-methyl-2-(trifluoromethyl)imidazol-4-yl]-N-(1-methylindazol-7-yl)pyridine-3-sulfonamide] | > 2.5 |  | < 0.4
11 | Cn1ncc2cccc(NS(=O)(=O)c3ccc(-c4cnc(C(F)F)s4)nc3)c21 [Example I-241, 6-(2-(difluoromethyl)thiazol-5-yl)-N-(1-methyl-1H-indazol-7-yl)pyridine-3-sulfonamide] | 0.4 to 1 |  | < 0.4
12 | COc1ncc(-c2ccc(S(=O)(=O)Nc3cccc4cnn(C)c34)cn2)s1 [Example I-243, 6-(2-methoxythiazol-5-yl)-N-(1-methyl-1H-indazol-7-yl)pyridine-3-sulfonamide] | > 2.5 |  | < 0.4
13 | Cn1ncc2cccc(NS(=O)(=O)c3ccc(-c4cnc(N5CCOCC5)s4)nc3)c21 [Example I-244, N-(1-methyl-1H-indazol-7-yl)-6-(2-morpholinothiazol-5-yl)pyridine-3-sulfonamide] | > 2.5 |  | < 0.4
